The record followed here is paper PMC5908784, “Extracellular loops 2 and 3 of the calcitonin receptor selectively modify agonist binding and efficacy” (Biochemical Pharmacology, 2018).

Where no end group is shown, it is not given here.

In this experiment the target is T1, hCTR V358A (Homo sapiens, UniProt P30988, V358A).
T1 construct: c-Myc (N); expressed in transfected cells
T1 sequence (P30988 25-474 V358A): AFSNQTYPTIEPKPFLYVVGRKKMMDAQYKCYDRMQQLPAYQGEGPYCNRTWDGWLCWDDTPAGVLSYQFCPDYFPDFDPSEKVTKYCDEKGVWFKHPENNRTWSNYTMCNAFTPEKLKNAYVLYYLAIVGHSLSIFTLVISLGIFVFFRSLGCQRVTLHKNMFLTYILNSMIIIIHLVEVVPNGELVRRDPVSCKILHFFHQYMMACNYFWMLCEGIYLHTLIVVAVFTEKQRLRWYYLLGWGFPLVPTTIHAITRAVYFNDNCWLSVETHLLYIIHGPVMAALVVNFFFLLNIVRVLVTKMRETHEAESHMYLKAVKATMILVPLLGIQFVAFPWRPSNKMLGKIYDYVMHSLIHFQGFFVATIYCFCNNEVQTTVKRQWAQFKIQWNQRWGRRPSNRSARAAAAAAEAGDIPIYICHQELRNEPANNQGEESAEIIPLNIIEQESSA
Description: Homologous whole cell competition binding. To be noted: homologous competition of 125I-sCT(8-32), whole cells, mean ± S.E.M., SEM. The essentials: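 Gamma counting of bound ^125I-sCT(8-32) after overnight 4 °C incubation of intact cells with tracer (two levels, 25–100 pM) plus unlabelled sCT(8-32) dilutions. Data normalized to total and 1 μM sCT(8-32) nonspecific binding; pKi via Cheng-Prusoff.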

The Ki is a measure of affinity in units of concentration, obtained from inhibition or displacement. In the case of “VLGKLSQELHKLQTYPRTNTGSGTP-NH2 [sCT(8-32)]”, the Ki is 0.155 nM.
